The target of one experiment is T1, CCL17 (Homo sapiens, UniProt Q92583).
T1 construct: codes for the mature CCL17 or CCL22 with an N-terminal thioredoxin-hexahistidin (TRX- (His)6) tag; thioredoxin (TRX) (N, cleaved yes); (His)6 (N, cleaved yes); made in house; host or cells: E. coli BL21 (DE3)
T1 sequence (Q92583 24-94): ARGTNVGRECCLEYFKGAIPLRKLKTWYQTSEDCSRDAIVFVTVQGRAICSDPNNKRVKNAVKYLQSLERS
In words: TRIC-r calcium assay, neutraligand protocol: compound preincubated with CCL17, EGFP-CCR4+Gqi5+ HEK cells. Type of experiment: cell-based. On the procedure:
EGFP-CCR4^+Gqi5^+HEKcells were loaded with fluorescent Ca^2+-indicator Indo-1 AM (5μM, Interchim) for 45 min at 37 °C. […] Cells (100,000 cells/well, 100μl) were seeded in black clear bottom 96-well plates (Greiner), and centrifuged at 250 × g for 5 min.
Two plates (96-well plates, Greiner) were prepared for the screen: one containing test compounds alone in order to determine their direct agonistic activity, and another one containing test compounds mixed with CCL17 or CCL22 at room temperature for 1 h (neutraligand protocol). The chemokines and test compounds were prepared at a 3× concentration, while digitonin was prepared at a 4× concentration. The CCR4 antagonist, C-021 served as control in the experiment. In the antagonist protocol, compounds were added to the cell plate (one compound per well) and incubated with cells for 30 min at room temperature, while the agonist (CCL17 or CCL22) was added to the ligand plate only.
Dye loaded cells were placed in the FlexStation 3 (Molecular Devices). […] For the primary screening, the ligands (50μl of chemokine mixed with DMSO or test compounds) were added to the cells at 40 s, followed by digitonin addition (50μl) at 100 s to the cells. Molecules were screened at a final concentration of 2μg/ml with 5 nM CCL17 or CCL22. […] The calcium response values (height of peak response over baseline) were determined. Hits were selected by comparing the response amplitude at the time of the chemokine addition ± test compound. The Z’ factor[29] was calculated according to the following equation: Z’ = 1-(3SD+ + 3SD−)/|Ave+ − Ave−|, where SD+ and Ave+ are respectively the standard deviation and the mean value of the positive controls (chemokine + DMSO), while SD− and Ave− are respectively the standard deviation and the mean value of the negative controls (HEPES-BSA (0.1%) mixed with DMSO, or cells mixed with C-021). Hit molecules were confirmed by performing concentration-response curves and their half maximal inhibitory concentration (IC50) values were calculated using the Kaleidagraph software.

The target in the next experiment is T2, CCR4 (Homo sapiens, UniProt P51679).
T2 construct: signal peptide fused to EGFP (N); expressed in transfected cells; host or cells: HEK-293
T2 sequence (P51679 1-360): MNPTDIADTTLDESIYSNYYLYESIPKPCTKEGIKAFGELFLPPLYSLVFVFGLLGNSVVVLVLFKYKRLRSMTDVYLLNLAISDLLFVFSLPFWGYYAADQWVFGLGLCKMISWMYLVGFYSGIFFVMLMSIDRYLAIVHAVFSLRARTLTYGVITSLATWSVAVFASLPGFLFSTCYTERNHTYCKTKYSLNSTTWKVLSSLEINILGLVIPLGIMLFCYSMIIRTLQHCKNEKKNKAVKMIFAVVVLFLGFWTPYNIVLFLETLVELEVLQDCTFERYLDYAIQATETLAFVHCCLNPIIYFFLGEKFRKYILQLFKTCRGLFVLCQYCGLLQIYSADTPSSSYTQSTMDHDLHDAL
In words: EGFP-CCR4 receptor surface level / endocytosis on EGFP-CCR4+ HEK cells. The format is cell-based. As to conditions: without chemokine, data not shown. On the procedure: CCR4 levels were evaluated by flow cytometry (FACSCalibur, BD biosciences) using cell surface labeling of EGFP with monoclonal mouse anti-GFP (Roche Applied Science; 1:100 dilution) as primary antibody and R-phycoerythrin conjugated AffiniPure F (ab’)2 fragment goat anti-mouse (Immunotech; 1/100) as secondary antibody.

SMILES strings stand for the structures. Like-named read-outs stand apart in the source and are kept apart here.

Usually inhibition stands for how much of the control response was suppressed. For `CC(C)=CCn1cnc2c1c(=O)n(C)c(=O)n2C` [GPN279, 1,3-dimethyl-7-(3-methylbut-2-enyl)-1H-purine-2,6(3H, 7H)-dione], the “calcium response induced by WT CCL17 preincubated with compound” value at CCL17 (10 μM compound, 5 nM chemokine, remaining response) amounted to 56.0 ± 5.0%. Also, the inhibition at 5 µM at CCL17 (HEK293, read-out: Inhibition of CCL17 calcium responses (%)) is 42 ± 4%. Moreover, on CCL17 (HEK293, read-out: inhibition of CCL17-evoked calcium responses (selectivity)), the inhibition at 10 µM is 40%. In addition, the inhibition at 2 µg/mL at CCL17 (HEK293, read-out: inhibition of CCL17-induced calcium responses (primary screen)) is 42%. The “effect on CCR4 receptor surface level on its own” value at CCR4 is reported as “Neither GPN279 nor GPN136 did alter”.
Consider `O=C(OCC(O)CO)c1ccccc1O` (centres unmarked) [GPN136, 2,3-dihydroxypropyl 2-hydroxybenzoate], for which the “inhibition of CCL17-evoked calcium responses (selectivity)” value on CCL17 (10 μM compound, 5 nM CCL17, EGFP-CCR4+ HEK cells) is on record as “no effect”. Also, the inhibition at 5 µM on CCL17 (HEK293, compound 5 µM, read-out: Inhibition of CCL17 calcium responses (%)) turned out to be 0%. The “effect on CCR4 receptor surface level on its own” value on CCR4 is given as “Neither GPN279 nor GPN136 did alter”.

The values are drawn from PMC4595804, “A strategy to discover decoy chemokine ligands with an anti-inflammatory activity” (Scientific Reports, 2015).
